The values that follow come from patent US10682399B2, “Target peptides for colorectal cancer therapy and diagnostics” (University of Virginia Patent Foundation, priority 2012, dated 2020).

Non-standard residues stand in square brackets, D forms with d. No end group written: not given here. pS = N[C@@H](COP(=O)(O)O)C(=O)O

The subject of assay [1] is CRC cell line SW620. Nature of the assay: Killing of CRC cell line by phosphopeptide-specific T cell lines. It counts as cell-based, human. Conditions: T cell lines established against the phosphopeptide. From the text: T cells lines were established against some of these key phosphopeptide targets.
Assay [2] concerns Healthy donor PBMC. Description: Cultured IFNγ ELISpot on day 7, healthy donor PBMC. Conditions: day 7, HLA-matched healthy donors. It counts as cell-based, human. How it is done: Healthy donor PBMC responses to the CRC tumor-specific phosphopeptides were assessed using a cultured IFNγ ELISpot on day 7.
Generally, quantification of T cell IFNγ production in response to peptides was performed by ELISpot as per manufacturer's instructions. In brief, ELISpotPRO wells, pre-coated with IFNγ monoclonal antibody mAb 1-D1K (MabTech, product code: 3420-2APW-2), were washed four times with sterile PBS and blocked for 30 minutes with 200 μl 10% RPMI 1640 after which the blocking medium was removed.
For ELISpot analysis, PBMCs and CD8+ T cells were isolated fresh from healthy donors and patients. 1×10^6 PBMCs were isolated from both disease patients and healthy donors and re-suspended in AIM-V media (10% human AB serum) in a 96 well plate. Peptide or phosphopeptides were added individually at 10 μg/ml and placed at 37° C. in CO2 incubator for 7 days. Cells were then harvested, washed four times, and re-challenged with either phosphopeptides, peptides, anti CD3 (OKT3, 100 ng/ml, Mabtech) as per manufacturer's instructions. Individual cytokine-producing cells were identified as dark spots after a 15 minute reaction with 5-bromo-4-chloro-3-indolyl phosphate and NBT by means of an alkaline phosphatase conjugate substrate (Mabtech).

Assay [3] has as its system Tumor infiltrating lymphocytes (TILs). Nature of the assay: TIL responses to phosphopeptides, multiplexed intracellular cytokine staining for IL-2, IFNγ, TNFα. The format is cell-based, human. Here is the method:
Tumor infiltrating lymphocytes (“TILs”) from the same tumors, were extracted and expanded, and their responses to the phosphopeptides assessed using multiplexed intracellular cytokine staining for IL-2, IFNγ, and TNFα as depicted in FIG. 1A.
Tumor infiltrating lymphocytes (TILs) were also taken from the patient tumors at resection and expanded, using high-dose IL-2 (6000 IU/ml). TIL responses to the phosphopeptides were then tested using ICS. TILs were stimulated with phosphopeptide and cultured for 7 days before being re-stimulated in an intracellular cytokine staining assay assessing production of tumor necrosis factor alpha (TNFα), interferon gamma (IFNγ) and interleukin-2 (IL-2). The results are depicted in FIG. 6.

Assay [4] has as its system xenograft tumor. Nature of the assay: Xenograft tumor model system. The format is in vivo. From the text:
(§1) IRS proteins are adapter proteins that link signaling from upstream activators to multiple downstream effectors to modulate normal growth, metabolism, survival and differentiation.

The test system of assay [5] is human melanoma and breast tumors. Nature of the assay: Recognition and killing of tumors in vitro by phosphopeptide-specific CD8+ T cells. The format is cell-based.
From the text: as §1

In assay [6] the test system is CD8+ T cells. Nature of the assay: Immunization of HLA-A2 transgenic mice with phosphopeptide. The format is in vivo, mouse. Conditions: immunization with the phosphopeptide. Here is the method:
In some embodiments, the immunogenicity of a target peptide is measured using transgenic mice expressing human MHC class I genes. For example, “ADD Tg mice” express an interspecies hybrid class I MHC gene, AAD, which contains the α-1 and α-2 domains of the human HLA-A2.1 gene and the α-3 transmembrane and cytoplasmic domains of the mouse H-2Dd gene, under the transcriptional control of the human HLA-A2.1 promoter. Immunodetection of the HLA-A2.1 recombinant transgene established that expression was at equivalent levels to endogenous mouse class I molecules. The mouse α-3 domain expression enhances the immune response in this system. Compared to unmodified HLA-A2.1, the chimeric HLA-A2.1/H2-Dd MHC Class I molecule mediates efficient positive selection of mouse T cells to provide a more complete T cell repertoire capable of recognizing peptides presented by HLA-A2.1 Class I molecules.
The peptide epitopes presented and recognized by mouse T cells in the context of the HLA-A2.1/H2-Dd class I molecule are the same as those presented in HLA-A2.1^+ humans. […]
In some embodiments, the immunogenicity of a modified phosphopeptide is determined by the degree of Interferon gamma (IFNγ) and/or tumor necrosis factor-alpha (TNF-α) production of T cells from ADD Tg mice immunized with the target peptide, e.g., by immunization with target peptide pulsed bone marrow derived dendritic cells. […]

For assay [7], the system named is memory T cells. Nature of the assay: Phosphopeptide-specific memory T cell response in a patient. The format is cell-based, human. From the text: The phrase “capable of inducing a target peptide-specific memory T cell response in a patient” as used herein relates to eliciting a response from memory T cells (also referred to as “antigen-experienced T cell”), which are a subset of infection- and cancer-fighting T cells that have previously encountered and responded to their cognate antigen. Such T cells can recognize foreign invaders, such as bacteria or viruses, as well as cancer cells. Memory T cells have become “experienced” by having encountered antigen during a prior infection, having encountered cancer, or via previous vaccination. At a second encounter with the cognate antigen (e.g., by way of an initial inoculation with a target peptide of the presently disclosed subject matter), memory T cells can reproduce to mount a faster and stronger immune response than the first time the immune system responded to the invader (e.g., through the body's own consciously unperceived recognition of a target peptide being associated with diseased tissue). This behavior can be assayed in T lymphocyte proliferation assays, which can reveal exposure to specific antigens.
Tensin 3 (TNS3) plays a role in actin remodeling. It is involved in the dissociation of the integrin-tensin-actin complex. EGF activates TNS4 and down-regulates TNS3 which results in capping the tail of ITGB1. […]

As to “LPIFSRLsI (LPIFSRL[pS]I; listed as Homo sapiens) [ZFP36L2]”, the “Killing of SW620 by phosphopeptide-specific T cell line” value in assay [1] is listed as “specifically kill”. Besides, the “Healthy donor PBMC responses, IFNγ ELISpot” value in assay [2] is listed as “many responses were seen”.
As for “RPRARsVDAL (RPRAR[pS]VDAL; listed as Homo sapiens) [LISCH7]”, in assay [3] (TILs from the tumor from which the phosphopeptides were identified, equivalent to the EBV peptide response), the TIL response was ~2 % of TILs.
For the substance “RTHsLLLLL (RTH[pS]LLLLL; listed as Homo sapiens) [RNASE4]”, the “Healthy donor PBMC responses, IFNγ ELISpot” value in assay [2] is given as “many responses were seen”.
Take “RTMsEAALVRK (RTM[pS]EAALVRK; listed as Homo sapiens) [RASSF6]”: the “TIL responses to phosphopeptide (IL-2, IFNγ, TNFα)” value in assay [3] (TILs extracted from tumors and expanded) is given as “responses were seen”.
In the case of “RVAsPTSGV (RVA[pS]PTSGV; listed as Homo sapiens) [IRS2 (A2), HLA-A*0201 phosphopeptide from insulin receptor substrate 2]”, in assay [1], the “Killing of SW620 by phosphopeptide-specific T cell line” value is “specifically kill”. Further, in assay [4], the “Tumor growth control by the T cells” value is listed as “controlled tumor growth”. Also, in assay [5], the “Recognition and killing of human melanoma and breast tumors by the T cells” value is “capable of recognizing and killing”. In assay [6], the “Generation of phosphopeptide-specific CD8+ T cells” value was “can be generated”.
Turning to “VMIGsPKKV (VMIG[pS]PKKV; listed as Homo sapiens) [Tensin 3 phosphopeptide]”, in assay [7], the “Phosphopeptide-specific memory T cell response” value was “capable of inducing a strong phosphopeptide-specific memory T cell response”.
